Laboratory results from patent US7750047B2, “Modulators (inhibitors/activators) of histone acetyltransferases” (Jawaharlal Nehru Centre for Advanced Scientific Research, priority 2002, dated 2010).
Read-outs that look alike come from different tables or passages of the source.

Key:
p300 [1] = molecular target: T1, p300 (Homo sapiens, UniProt Q09472); assay: HAT assay (filter binding) with p300 and core histones; assay type: biochemical; design: Full-length p300 was also purified from the recombinant baculovirus infected Sf21 cells as a His6-tagged protein; His6; made in house; host or cells: Sf21 insect cells (recombinant baculovirus)
Description: (§1) B: Biochemical Methods: Purification of Human Core Histones and Recombinant Proteins-Human core histones were purified from HeLa nuclear pellet as described previously (12). The FLAG epitope tagged Human Topoisomerase I, histone deacetylase 1 (HDAC1) and PCAF, were purified from the recombinant baculovirus infected insect cell line, Si 217 by the immunoaffinity purification using M2-agarose (SIGMA)(13). Full-length p300 was also purified from the recombinant baculovirus infected Sf21 cells as a His6-tagged protein through the Ni-NTA affinity column (Qiagen) as described previously (12). The His6-tagged nucleosome assembly protein 1 (NAP1), used for the in vitro chromatin assembly was purified from E. coli cells as previously reported (12) and the FLAG-tagged chimeric activator Ga14-VP16, expressed in E. coli and purified by immunoaffinity purification with M2 agarose. Human positive transcriptional coactivator, PC4, was expressed in E. coli and purified as described earlier (14).
(§2) HAT assays were performed as described elsewhere (12). Briefly, indicated amounts of proteins/peptide were incubated in HAT-assay buffer containing 50 Mm Tris-HCl, Ph 8.0, 10% (v/v) glycerol, 1 Mm dithiothreitol, 1 Mm phenylmethyl sulfonyl fluoride, 0.1 Mm EDTA, Ph 8.0, 10 Mm sodium butyrate at 30° C. for 10 min in presence or absence of compound followed by the addition of 1 pi of 6.2 Ci/mmol [^3H]-acetyl Coenzyme A (acetyl-CoA) and were further incubated for another 10 min. The final reaction volume was 30 ul. The reaction mixture was then blotted onto P-81 (Whatman) filter papers and radioactive counts were recorded on a Wallac 1409 liquid scintillation counter.
In order to characterize the inhibition kinetics of anacardic acid, filter-binding assays were done using constant amount of HeLa core histones in the presence or absence of AA with increasing concentrations of [3H]-acetyl CoA (see FIG. 3E). To visualize the radiolabeled acetylated histones, the reaction mixtures were resolved on 15% SDS-PAGE and processed for fluorography as described elsewhere (14).
Target sequence in this assay (Q09472 whole entry): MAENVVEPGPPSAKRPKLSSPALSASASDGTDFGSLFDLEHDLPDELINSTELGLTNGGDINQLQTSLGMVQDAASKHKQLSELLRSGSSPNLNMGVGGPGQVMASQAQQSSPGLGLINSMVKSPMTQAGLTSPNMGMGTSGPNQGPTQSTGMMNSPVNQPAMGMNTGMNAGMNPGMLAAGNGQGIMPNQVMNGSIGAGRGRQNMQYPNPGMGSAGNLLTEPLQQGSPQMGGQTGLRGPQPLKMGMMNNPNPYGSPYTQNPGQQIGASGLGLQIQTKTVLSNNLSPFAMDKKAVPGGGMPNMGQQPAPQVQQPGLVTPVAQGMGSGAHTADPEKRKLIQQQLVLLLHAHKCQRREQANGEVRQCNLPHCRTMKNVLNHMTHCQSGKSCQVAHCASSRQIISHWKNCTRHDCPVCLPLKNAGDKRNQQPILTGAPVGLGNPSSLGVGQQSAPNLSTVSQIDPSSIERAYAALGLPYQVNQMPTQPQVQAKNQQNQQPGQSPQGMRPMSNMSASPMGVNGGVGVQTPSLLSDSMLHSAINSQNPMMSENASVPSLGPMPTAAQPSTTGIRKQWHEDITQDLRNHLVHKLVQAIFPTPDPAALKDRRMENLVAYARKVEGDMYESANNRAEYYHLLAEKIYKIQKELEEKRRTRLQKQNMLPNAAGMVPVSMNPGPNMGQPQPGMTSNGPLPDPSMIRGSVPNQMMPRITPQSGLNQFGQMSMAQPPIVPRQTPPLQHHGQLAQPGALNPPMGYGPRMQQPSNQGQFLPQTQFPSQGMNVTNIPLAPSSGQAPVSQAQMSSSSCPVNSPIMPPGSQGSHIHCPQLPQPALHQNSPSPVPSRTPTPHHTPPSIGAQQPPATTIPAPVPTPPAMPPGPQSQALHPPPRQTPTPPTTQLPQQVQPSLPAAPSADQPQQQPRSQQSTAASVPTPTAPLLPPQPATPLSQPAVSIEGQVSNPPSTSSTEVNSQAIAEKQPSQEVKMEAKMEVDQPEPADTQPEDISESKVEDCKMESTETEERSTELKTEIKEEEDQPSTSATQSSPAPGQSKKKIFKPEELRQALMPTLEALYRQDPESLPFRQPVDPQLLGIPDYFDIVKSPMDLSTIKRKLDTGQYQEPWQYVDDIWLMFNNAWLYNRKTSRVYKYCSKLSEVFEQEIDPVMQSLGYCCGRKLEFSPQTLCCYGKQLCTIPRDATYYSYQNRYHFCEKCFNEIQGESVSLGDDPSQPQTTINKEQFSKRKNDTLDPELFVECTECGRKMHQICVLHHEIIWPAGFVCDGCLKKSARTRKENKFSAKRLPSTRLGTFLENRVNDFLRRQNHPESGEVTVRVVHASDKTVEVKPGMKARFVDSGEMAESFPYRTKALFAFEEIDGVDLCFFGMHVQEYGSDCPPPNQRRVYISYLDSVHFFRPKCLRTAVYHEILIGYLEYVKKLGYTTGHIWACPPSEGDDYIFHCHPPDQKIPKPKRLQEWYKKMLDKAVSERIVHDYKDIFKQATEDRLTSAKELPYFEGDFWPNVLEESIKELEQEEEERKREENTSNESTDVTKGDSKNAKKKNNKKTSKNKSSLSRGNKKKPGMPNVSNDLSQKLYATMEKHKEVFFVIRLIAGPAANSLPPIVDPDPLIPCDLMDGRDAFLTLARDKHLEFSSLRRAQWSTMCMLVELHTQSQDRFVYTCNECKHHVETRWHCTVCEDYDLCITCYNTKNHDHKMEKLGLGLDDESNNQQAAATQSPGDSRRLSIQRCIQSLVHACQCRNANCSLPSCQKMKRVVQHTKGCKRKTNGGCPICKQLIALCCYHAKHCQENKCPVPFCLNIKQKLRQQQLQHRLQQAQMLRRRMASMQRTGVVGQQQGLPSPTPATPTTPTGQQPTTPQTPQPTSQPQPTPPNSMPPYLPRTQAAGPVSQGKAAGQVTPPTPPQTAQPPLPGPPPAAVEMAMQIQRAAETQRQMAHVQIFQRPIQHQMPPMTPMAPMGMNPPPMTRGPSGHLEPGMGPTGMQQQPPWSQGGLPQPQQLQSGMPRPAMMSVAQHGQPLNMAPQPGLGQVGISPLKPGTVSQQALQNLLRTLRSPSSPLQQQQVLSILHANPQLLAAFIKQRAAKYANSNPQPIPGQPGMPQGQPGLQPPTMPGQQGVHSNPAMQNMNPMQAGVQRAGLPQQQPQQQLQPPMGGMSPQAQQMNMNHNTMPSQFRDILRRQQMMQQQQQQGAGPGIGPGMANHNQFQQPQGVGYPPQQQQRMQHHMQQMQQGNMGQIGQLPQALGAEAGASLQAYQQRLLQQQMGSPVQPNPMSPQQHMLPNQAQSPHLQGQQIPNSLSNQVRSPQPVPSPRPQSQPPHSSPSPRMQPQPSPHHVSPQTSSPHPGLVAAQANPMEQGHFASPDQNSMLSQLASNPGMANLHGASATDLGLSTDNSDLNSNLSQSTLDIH

p300 [2] = molecular target: T1, p300; assay: In vitro p300 HAT-dependent transcription assay from chromatin template; assay type: biochemical; design: Full-length p300 was also purified from the recombinant baculovirus infected Sf21 cells as a His6-tagged protein; His6; made in house; host or cells: Sf21 insect cells (recombinant baculovirus)
Description: In Vitro Chromatin assembly: Chromatin template for in vitro transcription experiments was assembled and characterized as described earlier (8).
(§3) In Vitro Transcription Assay: Transcription assays were essentially carried out as described elsewhere (8), with minor modifications. The scheme of transcription is enumerated in FIG. 6A. Briefly, 30 ng of DNA/equivalent amount of chromatin template was incubated with 30 ng of activator (Gal4-VP16) in a buffer containing 4 mM HEPES (pH 7.8), 20 mM KCl, 2 mM DTT, 0.2 mM PMSF, 10 mM sodium butyrate, 0.1 mg/ml BSA, 2% glycerol (8). The activating compounds were added to the acetylation reaction along with p300 and acetyl-CoA, and incubated for 30 min. at 30° C. This was followed by addition of the p300 specific inhibitor Lysyl CoA (5 nom) to quench the acetylation reaction.
(§4) For inhibitors, the HAT p300 was pre-incubated with indicated amounts of inhibitor on ice for 20 min., following which it was added to the acetylation reaction in the transcription assay. […] The ^32P-radiolabeled transcript was extracted with phenol-chloroform, ethanol precipitated, dried pellet dissolved in loading dye (8 M Urea, 0.005% bromophenol blue and xylene cyanol) and analyzed on 5% urea-polyacrylamide gel. […] Quantification of transcription was done by Fuji BAS system. Quantitation of DNA and chromatin transcription data represents three independent experiments.
Target sequence in this assay (Q09472 whole entry): as above

PCAF = molecular target: T2, PCAF (Homo sapiens, UniProt Q92831); assay: HAT assay (filter binding) with PCAF and core histones; assay type: biochemical
T2 construct: FLAG; made in house; host or cells: insect cell line (printed 'Si 217', probably Sf21), recombinant baculovirus
T2 sequence (Q92831 whole entry): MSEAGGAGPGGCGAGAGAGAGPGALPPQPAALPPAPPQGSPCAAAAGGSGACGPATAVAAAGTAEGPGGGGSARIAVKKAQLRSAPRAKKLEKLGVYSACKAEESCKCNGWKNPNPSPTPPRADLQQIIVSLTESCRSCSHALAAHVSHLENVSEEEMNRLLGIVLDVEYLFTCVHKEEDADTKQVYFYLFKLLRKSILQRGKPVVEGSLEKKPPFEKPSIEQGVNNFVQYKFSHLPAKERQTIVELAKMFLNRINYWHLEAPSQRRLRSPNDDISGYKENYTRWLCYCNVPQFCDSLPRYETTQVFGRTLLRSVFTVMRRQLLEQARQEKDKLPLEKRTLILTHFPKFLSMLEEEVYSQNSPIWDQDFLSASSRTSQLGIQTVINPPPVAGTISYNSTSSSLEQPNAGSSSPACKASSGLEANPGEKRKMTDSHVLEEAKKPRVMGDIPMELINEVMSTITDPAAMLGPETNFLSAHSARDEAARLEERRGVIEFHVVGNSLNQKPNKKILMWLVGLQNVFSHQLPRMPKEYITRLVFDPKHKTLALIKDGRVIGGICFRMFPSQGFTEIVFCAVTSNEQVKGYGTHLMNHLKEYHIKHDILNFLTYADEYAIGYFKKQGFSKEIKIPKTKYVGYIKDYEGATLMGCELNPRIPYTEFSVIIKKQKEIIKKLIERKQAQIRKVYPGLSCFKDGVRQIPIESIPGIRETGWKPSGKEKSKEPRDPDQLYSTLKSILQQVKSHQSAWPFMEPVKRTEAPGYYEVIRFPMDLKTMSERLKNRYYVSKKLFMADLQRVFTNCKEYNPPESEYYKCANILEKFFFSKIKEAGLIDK
Description: as §1
HAT assays were performed as described elsewhere (12). […] The reaction mixture was then blotted onto P-81 (Whatman) filter papers and radioactive counts were recorded on a Wallac 1409 liquid scintillation counter.

[3] = test system: basal transcription machinery; assay: In vitro transcription assay from histone-free DNA template; assay type: biochemical, human; details: compared to DMSO control
Description: as §3
as §4, with “assay. For the DNA transcription assays and chromatin transcription inhibition assays, the Lysyl CoA step was omitted.” for “assay.”

p300 [4] = molecular target: T1, p300; details: cited from earlier work
Target sequence in this assay (Q09472 whole entry, species assumed): as the sequence (Q09472 whole entry) above

[5] = test system: histone acetyltransferases; assay: HAT inhibition test of salicylic acid and benzoic acid; assay type: biochemical
Description: as §2

CCCCCCCCCCCCCCCc1cccc(OCC)c1C(=O)Nc1ccc(Cl)c(C(F)(F)F)c1 [CTPB, N-(4-Chloro-3-trifluoromethyl-phenyl)-2-ethoxy-6-pentadecyl-benzamide]
increase in histone acetylation levels (p300 [1]): ~5 fold
enhancement of p300 HAT activity (p300 [1]; human core histones): specifically enhances
enhancement of levels of HAT-dependent transcription from chromatin template over DMSO control (p300 [2]; added with p300 and acetyl CoA, 30 min acetylation): 1.6 fold

CCCCCCCCCCCCCCCc1cccc(O)c1C(=O)O [anacardic acid, 2-hydroxy-6-pentadecylbenzoic acid]
inhibition of HAT activity of PCAF (PCAF): inhibits
effect on transcript levels from DNA template [3]: but not DNA transcription
inhibitory activity towards p300 HAT activity (p300 [1]): inhibits
type of p300-HAT inhibition (double reciprocal plot 1/c.p.m. vs. 1/[Acetyl CoA]) (p300 [1]; increasing [3H]-acetyl CoA, constant amount of core histones): non-competitive
inhibitory activity towards p300 HAT activity (p300 [1]; listed as Anacardic acid): equally potent inhibitory activity
inhibition of p300 HAT activity dependent transcription from the chromatin template (p300 [2]): inhibits

Lys-CoA
inhibition of HAT activity of p300 (p300 [4]): specifically inhibit

O=C(O)c1ccccc1 [benzoic acid]
inhibitory activity against histone acetyltransferases [5]: Neither salicylic acid nor benzoic acid shown any inhibitory activity

O=C(O)c1ccccc1O [salicylic acid]
inhibitory activity against histone acetyltransferases [5]: Neither salicylic acid nor benzoic acid shown any inhibitory activity
